# Reference: patent US6355799B1, “Substituted benzene compounds, process for their preparation, and herbicidal and defoliant compositions containing them” (ISK Americas Incorporated, priority 1997, dated 2002)
# Read-outs that look alike come from different tables or passages of the source.
# Experiments:
# Format in all cases: in vivo
# [1] = test system: barnyardgrass (Echinochloa crus-galli, ECHCG); test: Pre-emerge test, greenhouse herbicide activity screening; settings: pre-emerge; for Pre-emerge Herbicidal Activity ECHCG (phytotoxicity rating, scale 0-100): rated 14 days after application, 0 = no damage, 100 = complete death
# Method in brief: (§1)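 Visual ratings on a 0-100 scale (0 no damage, 100 all plants dead) were taken at 14 days after treatment. Rates of 15-1000 g ai/ha in acetone, 187 l/ha, were sprayed onto soil one day after planting (pre-emerge) or onto 2-3 leaf plants with 0.25% v/v surfactant (post-emerge).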
# [2] = test system: green foxtail (Setaria viridis, SETVI); test: as above; settings: pre-emerge; for Pre-emerge Herbicidal Activity SETVI (phytotoxicity rating, scale 0-100): rated 14 days after application, 0 = no damage, 100 = complete death
# Method in brief: as §1
# [3] = test system: ivyleaf morningglory (Ipomoea hederacea, IPOHE); test: as above; settings: pre-emerge; for Pre-emerge Herbicidal Activity IPOHE (phytotoxicity rating, scale 0-100): rated 14 days after application, 0 = no damage, 100 = complete death
# Method in brief: as §1
# [4] = test system: johnsongrass (Sorghum halepense, SORHA); test: as above; settings: pre-emerge; for Pre-emerge Herbicidal Activity SORHA (phytotoxicity rating, scale 0-100): rated 14 days after application, 0 = no damage, 100 = complete death
# Method in brief: as §1
# [5] = test system: lambsquarters (Chenopodium album, CHEAL); test: as above; settings: pre-emerge; for Pre-emerge Herbicidal Activity CHEAL (phytotoxicity rating, scale 0-100): rated 14 days after application, 0 = no damage, 100 = complete death
# Method in brief: as §1
# [6] = test system: large crabgrass (Digitaria sanguinalis, DIGSA); test: as above; settings: pre-emerge; for Pre-emerge Herbicidal Activity DIGSA (phytotoxicity rating, scale 0-100): rated 14 days after application, 0 = no damage, 100 = complete death
# Method in brief: as §1
# [7] = test system: sicklepod (Cassia obtusifolia, CASOB); test: as above; settings: pre-emerge; for Pre-emerge Herbicidal Activity CASOB (phytotoxicity rating, scale 0-100): rated 14 days after application, 0 = no damage, 100 = complete death
# Method in brief: as §1
# [8] = test system: velvetleaf (Abutilon theophrasti, ABUTH); test: as above; settings: pre-emerge; for Pre-emerge Herbicidal Activity ABUTH (phytotoxicity rating, scale 0-100): rated 14 days after application, 0 = no damage, 100 = complete death
# Method in brief: as §1
# [9] = test system: green foxtail (Setaria viridis, SETVI); test: Post-emerge test, greenhouse herbicide activity screening; settings: Setaria viridis, post-emergence, 336 h, read-out: Post-emerge Herbicidal Activity SETVI; for pest or weed control at 63 g/ha: 63 g ai/ha; for pest or weed control at 250 g/ha: 250 g ai/ha
# Method in brief: (§2)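 Rating: 0–100 visual injury, 14 DAA. Application: acetone, 187 l/ha, 15–1000 g ai/ha, flat-fan track sprayer with nozzle 40–45 cm above soil or canopy. Post-emerge runs used 0.25% v/v surfactant on 2–3 leaf plants.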
# [10] = test system: johnsongrass (Sorghum halepense, SORHA); test: as above; settings: Sorghum halepense, post-emergence, 336 h, read-out: Post-emerge Herbicidal Activity SORHA; for pest or weed control at 63 g/ha: 63 g ai/ha; for pest or weed control at 250 g/ha: 250 g ai/ha
# Method in brief: as §2
# [11] = test system: lambsquarters (Chenopodium album, CHEAL); test: as above; settings: Chenopodium album, post-emergence, 336 h, read-out: Post-emerge Herbicidal Activity CHEAL; for pest or weed control at 63 g/ha: 63 g ai/ha; for pest or weed control at 250 g/ha: 250 g ai/ha
# Method in brief: as §2
# [12] = test system: large crabgrass (Digitaria sanguinalis, DIGSA); test: as above; settings: Digitaria sanguinalis, post-emergence, 336 h, read-out: Post-emerge Herbicidal Activity DIGSA; for pest or weed control at 63 g/ha: 63 g ai/ha; for pest or weed control at 250 g/ha: 250 g ai/ha
# Method in brief: as §2
# [13] = test system: redroot pigweed (Amaranthus retroflexus, AMARE); test: as above; settings: Amaranthus retroflexus, post-emergence, 336 h, read-out: Post-emerge Herbicidal Activity AMARE; for pest or weed control at 63 g/ha: 63 g ai/ha; for pest or weed control at 250 g/ha: 250 g ai/ha
# Method in brief: as §2
# [14] = test system: velvetleaf (Abutilon theophrasti, ABUTH); test: as above; settings: Abutilon theophrasti, post-emergence, 336 h, read-out: Post-emerge Herbicidal Activity ABUTH; for pest or weed control at 63 g/ha: 63 g ai/ha; for pest or weed control at 250 g/ha: 250 g ai/ha
# Method in brief: as §2
# [15] = post-emerge, phytotoxicity rating 0-100 at 14 days after application
# [16] = phytotoxicity rating 0-100 (0 no damage, 100 complete death), 14 days after application
smiles,measurement,setting,value
"COc1c(Cl)cc(F)c(-c2nn(C)c(C(F)(F)F)c2Cl)c1N [Compound 7-2, 4-chloro-3-(2-amino-4-chloro-6-fluoro3-metoxyphenyl)-1-methyl-5-trifluoromethyl-1H-pyrazole]",pest or weed control at 63 g/ha,"[1]; Echinochloa crus-galli, pre-emergence, 336 h, rate 63 g ai/ha, phytotoxicity rating 0-100 at 14 days after application, read-out: Pre-emerge Herbicidal Activity ECHCG",70%
same,pest or weed control at 250 g/ha,"[1]; Echinochloa crus-galli, pre-emergence, 336 h, rate 250 g ai/ha, phytotoxicity rating 0-100 at 14 days after application, read-out: Pre-emerge Herbicidal Activity ECHCG",100%
same,pest or weed control at 63 g/ha,"[2]; Setaria viridis, pre-emergence, 336 h, rate 63 g ai/ha, phytotoxicity rating 0-100 at 14 days after application, read-out: Pre-emerge Herbicidal Activity SETVI",95%
same,pest or weed control at 250 g/ha,"[2]; Setaria viridis, pre-emergence, 336 h, rate 250 g ai/ha, phytotoxicity rating 0-100 at 14 days after application, read-out: Pre-emerge Herbicidal Activity SETVI",100%
same,pest or weed control at 63 g/ha,"[3]; Ipomoea, pre-emergence, 336 h, rate 63 g ai/ha, phytotoxicity rating 0-100 at 14 days after application, read-out: Pre-emerge Herbicidal Activity IPOHE",60%
same,pest or weed control at 250 g/ha,"[3]; Ipomoea, pre-emergence, 336 h, rate 250 g ai/ha, phytotoxicity rating 0-100 at 14 days after application, read-out: Pre-emerge Herbicidal Activity IPOHE",80%
same,pest or weed control at 63 g/ha,"[4]; Sorghum halepense, pre-emergence, 336 h, rate 63 g ai/ha, phytotoxicity rating 0-100 at 14 days after application, read-out: Pre-emerge Herbicidal Activity SORHA",95%
same,pest or weed control at 250 g/ha,"[4]; Sorghum halepense, pre-emergence, 336 h, rate 250 g ai/ha, phytotoxicity rating 0-100 at 14 days after application, read-out: Pre-emerge Herbicidal Activity SORHA",100%
same,pest or weed control at 63 g/ha,"[5]; Chenopodium album, pre-emergence, 336 h, rate 63 g ai/ha, phytotoxicity rating 0-100 at 14 days after application, read-out: Pre-emerge Herbicidal Activity CHEAL",100%
same,pest or weed control at 250 g/ha,"[5]; Chenopodium album, pre-emergence, 336 h, rate 250 g ai/ha, phytotoxicity rating 0-100 at 14 days after application, read-out: Pre-emerge Herbicidal Activity CHEAL",100%
same,pest or weed control at 63 g/ha,"[6]; Digitaria sanguinalis, pre-emergence, 336 h, rate 63 g ai/ha, phytotoxicity rating 0-100 at 14 days after application, read-out: Pre-emerge Herbicidal Activity DIGSA",100%
same,pest or weed control at 250 g/ha,"[6]; Digitaria sanguinalis, pre-emergence, 336 h, rate 250 g ai/ha, phytotoxicity rating 0-100 at 14 days after application, read-out: Pre-emerge Herbicidal Activity DIGSA",100%
same,pest or weed control at 63 g/ha,"[7]; Senna obtusifolia, pre-emergence, 336 h, rate 63 g ai/ha, phytotoxicity rating 0-100 at 14 days after application, read-out: Pre-emerge Herbicidal Activity CASOB",30%
same,pest or weed control at 250 g/ha,"[7]; Senna obtusifolia, pre-emergence, 336 h, rate 250 g ai/ha, phytotoxicity rating 0-100 at 14 days after application, read-out: Pre-emerge Herbicidal Activity CASOB",30%
same,pest or weed control at 63 g/ha,"[8]; Abutilon theophrasti, pre-emergence, 336 h, rate 63 g ai/ha, phytotoxicity rating 0-100 at 14 days after application, read-out: Pre-emerge Herbicidal Activity ABUTH",95%
same,pest or weed control at 250 g/ha,"[8]; Abutilon theophrasti, pre-emergence, 336 h, rate 250 g ai/ha, phytotoxicity rating 0-100 at 14 days after application, read-out: Pre-emerge Herbicidal Activity ABUTH",100%
same,pest or weed control at 63 g/ha,[9]; [15],20%
same,pest or weed control at 250 g/ha,[9]; [15],50%
same,pest or weed control at 63 g/ha,[10]; [15],20%
same,pest or weed control at 250 g/ha,[10]; [15],40%
same,pest or weed control at 63 g/ha,[11]; [15],95%
same,pest or weed control at 250 g/ha,[11]; [15],100%
same,pest or weed control at 63 g/ha,[12]; [15],20%
same,pest or weed control at 250 g/ha,[12]; [15],70%
same,pest or weed control at 63 g/ha,[13]; [15],100%
same,pest or weed control at 250 g/ha,[13]; [15],100%
same,pest or weed control at 63 g/ha,[14]; [15],100%
same,pest or weed control at 250 g/ha,[14]; [15],100%
"COc1c(Cl)cc(F)c(-n2c(=O)cc(C(F)(F)F)n(C)c2=O)c1N(C(C)=O)C(C)=O [Compound 2-2, 3-(4-chloro-2-diacetylamino-6-fluoro-3-methoxyphenyl)-1-methyl-6-trifluoromethyl-2,4(1H, 3H)-pyrimidinedione]","Pre-emerge Herbicidal Activity ECHCG (phytotoxicity rating, scale 0-100)",[1]; 63 g ai/ha,30
same,"Pre-emerge Herbicidal Activity ECHCG (phytotoxicity rating, scale 0-100)",[1]; 250 g ai/ha,90
same,"Pre-emerge Herbicidal Activity SETVI (phytotoxicity rating, scale 0-100)",[2]; 63 g ai/ha,90
same,"Pre-emerge Herbicidal Activity SETVI (phytotoxicity rating, scale 0-100)",[2]; 250 g ai/ha,100
same,"Pre-emerge Herbicidal Activity IPOHE (phytotoxicity rating, scale 0-100)",[3]; 63 g ai/ha,90
same,"Pre-emerge Herbicidal Activity IPOHE (phytotoxicity rating, scale 0-100)",[3]; 250 g ai/ha,100
same,"Pre-emerge Herbicidal Activity SORHA (phytotoxicity rating, scale 0-100)",[4]; 63 g ai/ha,60
same,"Pre-emerge Herbicidal Activity SORHA (phytotoxicity rating, scale 0-100)",[4]; 250 g ai/ha,90
same,"Pre-emerge Herbicidal Activity CHEAL (phytotoxicity rating, scale 0-100)",[5]; 63 g ai/ha,100
same,"Pre-emerge Herbicidal Activity CHEAL (phytotoxicity rating, scale 0-100)",[5]; 250 g ai/ha,100
same,"Pre-emerge Herbicidal Activity DIGSA (phytotoxicity rating, scale 0-100)",[6]; 63 g ai/ha,90
same,"Pre-emerge Herbicidal Activity DIGSA (phytotoxicity rating, scale 0-100)",[6]; 250 g ai/ha,95
same,"Pre-emerge Herbicidal Activity CASOB (phytotoxicity rating, scale 0-100)",[7]; 63 g ai/ha,60
same,"Pre-emerge Herbicidal Activity CASOB (phytotoxicity rating, scale 0-100)",[7]; 250 g ai/ha,90
same,"Pre-emerge Herbicidal Activity ABUTH (phytotoxicity rating, scale 0-100)",[8]; 63 g ai/ha,100
same,"Pre-emerge Herbicidal Activity ABUTH (phytotoxicity rating, scale 0-100)",[8]; 250 g ai/ha,100
same,pest or weed control at 63 g/ha,[9]; [16],0%
same,pest or weed control at 250 g/ha,[9]; [16],30%
same,pest or weed control at 63 g/ha,[10]; [16],0%
same,pest or weed control at 250 g/ha,[10]; [16],50%
same,pest or weed control at 63 g/ha,[11]; [16],60%
same,pest or weed control at 250 g/ha,[11]; [16],100%
same,pest or weed control at 63 g/ha,[12]; [16],0%
same,pest or weed control at 250 g/ha,[12]; [16],30%
same,pest or weed control at 63 g/ha,[13]; [16],90%
same,pest or weed control at 250 g/ha,[13]; [16],100%
same,pest or weed control at 63 g/ha,[14]; [16],95%
same,pest or weed control at 250 g/ha,[14]; [16],100%
